{"source": "patent US11931429B2", "about": "“Chemiluminescent probes for diagnostics and in vivo imaging” (RAMOT AT TEL-AVIV UNIVERSITY LTD., priority 2016, dated 2024)", "key": {"[1]": {"system": "β-galactosidase", "protocol": "Spectra were recorded in PBS (100 mM), pH 7.4, in the presence of 1.5 units/mL β-galactosidase (continuous lines). Dotted line is the fluorescence emission spectrum (DCL—direct chemiluminescence).\nFluorescence and chemiluminescence were recorded on Molecular Devices Spectramax i3x.\nChemiluminescence parameters measured for Probes 1, 2 and 3 and their ability to detect and image β-galactosidase. Next, we measured the light emission of the probes, as a function of time, in the presence and in the absence of β-galactosidase.\nThe chemiluminescence quantum yield (ϕCL) of probes 2 and 3 was calculated using that of Probe 1 as a known standard (Edwards et al., 1994)."}, "[2]": {"system": "β-galactosidase", "settings": "Probe 1, known standard (Edwards et al., 1994); cited from earlier work"}, "[3]": {"assay": "Light-induced decomposition under normal room illumination, monitored by RP-HPLC", "format": "physicochemical", "settings": "PBS pH 7.4, normal room illumination", "method": "Probes (300 μM) were incubated in PBS (100 mM), pH 7.4, at ambient temperature.\nLight-induced decomposition of dioxetane-dye conjugates. While working on the synthesis of the dioxetane-fluorophore conjugates, we encountered an unexpected phenomenon. Although Probe 1 seemed to be photostable, Probes 2 and 3 appeared to decompose under normal room illumination conditions. We measured the photostability of the probes in aqueous solution (PBS, pH 7.4) under normal room illumination. The light-induced decomposition was monitored over several hours by a RP-HPLC assay (FIG. 2)."}}, "note": "“Also recorded” adds a separate entry of the source.", "data": [{"smiles": "COC1(c2cccc(O[C@@H]3OC(CO)[C@H](O)[C@H](O)C3O)c2Cl)OOC12C1CC3CC(C1)CC2C3", "note": "(stereo partly shown) [Probe 1, reference compound]", "values": [{"measurement": "λmax [nm] (chemiluminescence emission)", "setting": "[1]; 1 μM, PBS (100 mM) pH 7.4, 1.5 units/mL β-galactosidase", "value": 470, "unit": "nm"}, {"measurement": "Relative ΦCL", "setting": "[1]; relative to Probe 1", "value": 1}, {"measurement": "ΦCL (chemiluminescence quantum yield)", "setting": "[2]", "value": "3.3 × 10^−5"}, {"measurement": "photostability under normal room illumination", "setting": "[3]", "value": "photostable; also recorded: unaffected by light"}]}]}
